From patent US10098881B2, “Compounds” (AUTIFONY THERAPEUTICS LIMITED, priority 2011, dated 2018) come the findings set out here.

One series deals with Male CD-1 mice. The experiment in a line: Biological Example 2: psychostimulant (amphetamine)-induced hyperactivity in mice. As to conditions: for Locomotor activity (beam crosses): over 60 minutes, mean ± sem.
Series [1] can be described thus: Analysis of blood levels of Example 4 in study mice. It counts as in vivo. Particulars: CD-1, whole blood, ip, mouse, 90 minutes after administration, n=3, mean [range], read-out: Blood concentration of Test Drug. As to the method:
Blood samples were collected from a subset of study mice (n=3) at the end of the behavioural measurement (90 minutes post-dose of test drug), and assayed using a method based on protein precipitation with acetonitrile followed by HPLC-MS/MS analysis with an optimized analytical method. Since the stability of the analyte in blood and brain was unknown, Calibration standards (CS) and Quality control samples (QC) were prepared on the day of dosing and stored together with study samples. Study samples, CS, QC and blanks were spiked with rolipram as internal standard (IS). Study samples were analyzed in discrete batches together with CS, QC and blank samples.

In series [2] the target is T1, human Kv3.2 channels (hKv3.2) (Homo sapiens, UniProt Q96PR1).
T1 construct: expressed in transfected cells
T1 sequence (Q96PR1 1-638): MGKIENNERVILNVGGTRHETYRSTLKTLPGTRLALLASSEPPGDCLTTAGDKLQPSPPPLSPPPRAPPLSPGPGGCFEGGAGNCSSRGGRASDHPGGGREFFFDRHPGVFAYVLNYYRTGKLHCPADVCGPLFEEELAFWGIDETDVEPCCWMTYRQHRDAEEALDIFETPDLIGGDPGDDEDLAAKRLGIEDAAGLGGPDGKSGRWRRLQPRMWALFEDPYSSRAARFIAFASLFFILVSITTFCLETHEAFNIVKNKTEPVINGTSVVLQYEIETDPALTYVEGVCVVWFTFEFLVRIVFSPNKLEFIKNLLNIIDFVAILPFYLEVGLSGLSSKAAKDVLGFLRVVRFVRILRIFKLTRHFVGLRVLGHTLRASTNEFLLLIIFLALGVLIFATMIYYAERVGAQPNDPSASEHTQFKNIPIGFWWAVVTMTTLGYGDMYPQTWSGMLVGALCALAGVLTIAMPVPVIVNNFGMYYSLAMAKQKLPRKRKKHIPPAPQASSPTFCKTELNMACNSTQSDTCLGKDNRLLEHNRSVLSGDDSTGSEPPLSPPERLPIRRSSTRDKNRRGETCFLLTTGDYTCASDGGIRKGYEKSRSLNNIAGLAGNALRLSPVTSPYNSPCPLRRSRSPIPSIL
The experiment in a line: Biological Example 1: hKv3.2 whole-cell currents, IonWorks Quattro planar array electrophysiology. It counts as cell-based. Particulars: for Tauact mean: hKv3.2, -15 mV voltage step. From the text:
The ability of the compounds of the invention to modulate the voltage-gated potassium channel subtypes Kv3.2 or Kv3.1 may be determined using the following assay. Analogous methods may be used to investigate the ability of the compounds of the invention to modulate other channel subtypes, including Kv3.3 and Kv3.4.
To assess compound effects on human Kv3.2 channels (hKv3.2), a stable cell line expressing hKv3.2 was created by transfecting Chinese Hamster Ovary (CHO)-K1 cells with a pClH5-hKv3.2 vector. Cells were cultured in DMEM/F12 medium supplemented by 10% Foetal Bovine Serum, lx non-essential amino acids (Invitrogen) and 500 ug/ml of Hygromycin-B (Invitrogen). Cells were grown and maintained at 37° C. in a humidified environment containing 5% CO2 in air.
The day of the experiment, cells were removed from the incubator and the culture medium removed. Cells were washed with 5 ml of Dulbecco's PBS (DPBS) calcium and magnesium free and detached by the addition of 3 ml Versene (Invitrogen, Italy) followed by a brief incubation at 37° C. for 5 minutes. The flask was tapped to dislodge cells and 10 ml of DPBS containing calcium and magnesium was added to prepare a cell suspension. The cell suspension was then placed into a 15 ml centrifuge tube and centrifuged for 2 min at 1200 rpm. After centrifugation, the supernatant was removed and the cell pellet re-suspended in 4 ml of DPBS containing calcium and magnesium using a 5 ml pipette to break up the pellet. Cell suspension volume was then corrected to give a cell concentration for the assay of approximately 3 million cells per ml.
Experiments were conducted at room temperature using IonWorks Quattro™ planar array electrophysiology technology (Molecular Devices Corp.) with PatchPlate™ PPC. Stimulation protocols and data acquisition were carried out using a microcomputer (Dell Pentium 4). Planar electrode hole resistances (Rp) were determined by applying a 10 mV voltage step across each well. These measurements were performed before cell addition. […] Following this, amphotericin-B solution was added to the intracellular face of the electrode to achieve intracellular access. Cells were held at −70 mV. Leak subtraction was conducted in all experiments by applying 50 ms hyperpolarizing (10 mV) prepulses to evoke leak currents followed by a 20 ms period at the holding potential before test pulses. From the holding potential of −70 mV, a first test pulse to −15 mV was applied for 100 ms and following a further 100 ms at −70 mV, a second pulse to 40 mV was applied for 50 ms. Cells were then maintained for a further 100 ms at −100 mV and then a voltage ramp from −100 mV to 40 mV was applied over 200 ms. Test pulses protocol may be performed in the absence (pre-read) and presence (post-read) of the test compound. Pre- and post-reads may be separated by the compound addition followed by a 3 minute incubation.
The intracellular solution contained the following (in mM): K-gluconate 100, KCl 54, MgCl2 3.2, HEPES 5, adjusted to pH 7.3 with KOH. Amphotericin-B solution was prepared as […] stock solution in DMSO and diluted to a final working concentration of 0.1 mg/ml in intracellular solution.
Compounds of the invention (or reference compounds such as N-cyclohexyl-N-[(7,8-dimethyl-2-oxo-1,2-dihydro-3-quinolinyl)methyl]-N′-phenylurea were dissolved in dimethylsulfoxide (DMSO) at a stock concentration of 10 mM. These solutions were further diluted with DMSO using a Biomek FX
Each dilution (1 μL) was transferred to another compound plate and external solution containing 0.05% pluronic acid (66 μL) was added. 3.5 μL from each plate containing a compound of the invention was added and incubated with the cells during the lonWorks Quattro™ experiment. The final assay dilution was 200 and the final compound concentrations were in the range 50 μM to 50 nM.

Series [3] has as its system "fast-firing" interneurons in the somatosensory cortex. The experiment in a line: Recordings from identified fast-firing interneurons, trains of high frequency depolarising current pulses. It counts as cell-based, mouse. Particulars: 1 microM, n=6; trains of depolarising pulses at 100, 200, 300 Hz; p<0.05 vs no drug; listed as Reference Example 9. From the text: FIG. 2. Recordings made from identified “fast-firing” interneurons in the somatosensory cortex of the mouse.
Kv3.1 and Kv3.2 channels must activate and deactivate very rapidly in order to allow neurons to fire actions potentials at high frequency (Rudy and McBain, 2001, Trends in Neurosciences 24, 517-526). Slowing of activation is likely to delay the onset of action potential repolarisation; slowing of deactivation could lead to hyperpolarising currents that reduce the excitability of the neuron and delay the time before the neuron can fire a further action potential. Together these slowing effects on channel activation and deactivation are likely to lead to a reduction rather than a facilitation of the neurons ability to fire at high frequencies. Thus compounds that have this slowing effect on the Kv3.1 and/or Kv3.2 channels may slow neuronal firing.
The neurons are induced to fire at high frequencies by trains of high frequency depolarising current pulses at 100, 200, and 300 Hz. The ability of the neuron to fire an action potential on each pulse is determined. […] In the absence of drug (closed circles, n=9), the neurons maintained a spike probability of 1 up to 300 Hz.

Where [4] appears, read: compound 3.1 μM (concentration giving ~0.3 nA current at end of pulse).

The structures appear in SMILES notation. Entries after “also recorded” stand apart in the source; their conditions may differ. Where two headings read alike, the source gives them in different places.

`CC(N)Cc1ccccc1` (stereo not drawn) [Amphetamine, amphetamine, reference compound]: the “Locomotor activity (beam crosses)” value with Male CD-1 mice (amphetamine 2.0 mg/kg i.p. alone) amounted to 16190 ± 2394 beam crosses. The total locomotor activity entry with Male CD-1 mice (amphetamine alone, 2 mg/kg i.p.) is “large and significant increase”.
As for `CN1CCN(C2=Nc3cc(Cl)ccc3Nc3ccccc32)CC1` [Clozapine, reference compound], the “Locomotor activity (beam crosses)” value in the series on Male CD-1 mice (AMPH 2 mg/kg i.p. + clozapine i.p. 30 min before (positive control), p<0.001 vs amphetamine alone) worked out at 1546 ± 420 beam crosses.
Regarding `Cc1ccc(Oc2ncc(N3C(=O)NC(C)(C)C3=O)cn2)c2c1OCC21CC1` [Example 4, 5,5-dimethyl-3-[2-(7-methylspiro[2H-benzofuran-3,1′-cyclopropane]-4-yl)oxypyrimidin-5-yl]imidazolidine-2,4-dione], the concentration at 90 min in series [1] (Example 4 3 mg/kg i.p.) stood at 98 ng/mL; in series [1] (Example 4 10 mg/kg i.p.), 244 ng/mL; in series [1] (Example 4 30 mg/kg i.p.), 2140 ng/mL. Moreover, the “Locomotor activity (beam crosses)” value in the series with Male CD-1 mice (AMPH 2 mg/kg i.p. + Example 4 3 mg/kg i.p. 30 min before) came out at 10263 ± 2443 beam crosses; in the series on Male CD-1 mice (AMPH 2 mg/kg i.p. + Example 4 10 mg/kg i.p. 30 min before, p<0.05 vs amphetamine alone), 9015 ± 1413 beam crosses; in the series on Male CD-1 mice (AMPH 2 mg/kg i.p. + Example 4 30 mg/kg i.p. 30 min before, p<0.001 vs amphetamine alone) it was 4555 ± 922 beam crosses.
For `CC[C@H]1NC(=O)N(c2ccc(Oc3ccc(C#N)cc3C3CC3)nc2)C1=O` [RE5, 3-cyclopropyl-4-({5-[(4R)-4-ethyl-2,5-dioxo-1-imidazolidinyl]-2-pyridinyl}oxy)benzonitrile, reference compound], the Tauact mean in series [2] (setting [4]) amounted to 13.0 ms.
On the same count and under the same terms, for `CC[C@H]1NC(=O)N(c2ccc(Oc3ccc(C#N)c(OC(F)(F)F)c3)nc2)C1=O` [RE7, 4-({5-[(4R)-4-ethyl-2,5-dioxo-1-imidazolidinyl]-2-pyridinyl}oxy)-2-[(trifluoromethyl)oxy]benzonitrile, reference compound] the value was 10.4 ms; for `CC[C@H]1NC(=O)N(c2ccc(Oc3ccc(C#N)c(OC(C)C)c3)nc2)C1=O` [RE8, 4-({5-[(4R)-4-ethyl-2,5-dioxo-1-imidazolidinyl]-2-pyridinyl}oxy)-2-[(1-methylethyl)oxy]benzonitrile, reference compound], 9.7 ms.
In series [2] (compound 0.2 μM (concentration giving ~0.3 nA current at end of pulse)), `CC[C@H]1NC(=O)N(c2ccc(Oc3cccc4c3C3(CC3)CO4)nc2)C1=O` [RE9, reference compound] yielded a Tauact mean of 50.1 ms. In addition, the Tauact in series [2] (hKv3.2, each tested at a concentration that increased the Kv3.2 current to a similar level (~0.3 nA)) was 50.1 ± 7.5 ms. For the same compound, the “ability of the neurons to fire on each pulse (spike probability)” value in series [3] is recorded as “reduces the ability of the neurons to fire; also recorded: unable to follow trains at the highest frequency”.
